Measurements published in ChEMBL document CHEMBL1811852, “In vitro cytotoxic activity of abietane diterpenes from Peltodon longipes as well as Salvia miltiorrhiza and Salvia sahendica” (Bioorg Med Chem, 2011).
pIC50: −log10 of the molar value.

Columns and labels:
MIA PaCa-2 = test: Cytotoxicity against human MIAPaCa2 cells after 24 hrs by MTT assay; type: functional, cell-based; conditions: MIA PaCa-2, 24 h
[1] = Cytotoxicity against human MV-3 cells after 24 hrs by MTT assay; type: functional, cell-based; conditions: MV-3, 24 h

Row | SMILES | pIC50 (MIA PaCa-2) | pIC50 [1]
1 | CC(C)=CCCc1c(C)ccc2c1C(=O)C=C(C(C)C)C2=O [SAHANDINONE] | 4.99 | –
2 | CCO[C@@H]1C[C@H]2C(C)(C)CCC[C@]2(C)C2=C1C(=O)C(C(C)C)=C(O)C2=O | < 4.00 | < 4.10
3 | COc1c(O)c2c(c(O)c1C(C)C)C(=O)C[C@H]1C(C)(C)CCC[C@]21C [INUROYLEANOL] | < 4.10 | < 3.92
4 | CC(C)C1=C(O)C(=O)c2c(ccc3c2CCCC3(C)C)C1=O [DEOXYNEOCRYPTOTANSHINONE] | < 4.00 | < 3.82
5 | CC(C)c1cc2c(cc1O)[C@@]1(C)CCCC(C)(C)[C@@H]1CC2=O [SUGIOL] | 4.75 | 4.47
6 | COc1c(C(C)C)cc2c(c1O)[C@@]1(C)CCCC(C)(C)[C@@H]1[C@@H](O)C2 [IGUESTOL] | 4.38 | 4.18
7 | CC(C)C1=C(O)C(=O)C2=C(C(=O)C[C@H]3C(C)(C)CCC[C@]23C)C1=O | 4.52 | 4.18
8 | CC(C)C1=C(O)C(=O)C2=C(CC[C@H]3C(C)(C)CCC[C@]23C)C1=O [ROYLEANONE] | 4.49 | < 4.10
9 | COc1c(O)c(C(C)C)cc2c1[C@@]1(C)CCCC(C)(C)[C@@H]1CC2=O | 4.46 | 4.49
10 | CC(C)c1cc2ccc3c(c2c(O)c1O)C(=O)CCC3(C)C [MILTIODIOL] | 4.18 | –
11 | COc1c(C(C)C)cc2c(c1O)[C@@]1(C)CCCC(C)(C)[C@@H]1CC2=O [CRYPTOJAPONOL] | < 4.00 | < 4.10
12 | COc1c(O)c(C(C)C)c(O)c2c1[C@@]1(C)CCCC(C)(C)[C@@H]1CC2=O [ORTHOSIPHONOL] | < 4.00 | < 4.10
13 | CC(C)C1=Cc2ccc3c(c2C(=O)C1=O)CCCC3(C)C [MILTIRONE] | 4.65 | –
14 | CC[C@@]1(O)C(=O)OCc2c1cc1n(c2=O)Cc2cc3ccccc3nc2-1 [CAMPTOTHECIN] | 6.40 | –
15 | CC1=CCCc2c1ccc1c2C(=O)C(=O)c2c(C)coc2-1 | 5.25 | –
16 | CC(C)C1=Cc2ccc3c(c2C(=O)C1=O)C(=O)CCC3(C)C | 4.52 | –
17 | Cc1coc2c1C(=O)C(=O)c1c-2ccc2c1CCCC2(C)C [TANSHINONE IIA] | 5.72 | –
18 | CC(C)C1=C(O)C(=O)C2=C(C1=O)[C@H](O)C[C@H]1C(C)(C)CCC[C@]21C [HORMINONE] | 4.56 | 4.78
19 | C[C@H]1COC2=C1C(=O)C(=O)c1c2ccc2c1CCCC2(C)C [CRYPTOTANSHINONE] | 5.24 | –
20 | CC(C)c1cc2c(cc1O)[C@@]1(C)CCCC(C)(C)[C@@H]1CC2 [FERRUGINOL] | 4.59 | –
21 | Cc1coc2c1C(=O)C(=O)c1c-2ccc2c(C)cccc12 [TANSHINONE I] | 4.98 | –
22 | CC(=O)O[C@@H]1C[C@H]2C(C)(C)CCC[C@]2(C)C2=C1C(=O)C(C(C)C)=C(O)C2=O | 5.33 | 5.13
